# pKd: −log10 of the molar value. Where two headings read alike, the source gives them in different places. Ends that are not written are not given here.
# Experiments:
# [1] = target: T1, USP20 DUSP2 domain (Homo sapiens, UniProt Q9Y2K6); assay: FP-monitored affinity measurements, USP20 DUSP2; type: binding; conditions: USP20_DUSP2; FP displacement by unlabelled peptide; read-out: KD
# T1 construct: USP20_DUSP2; Q9Y2K6; DUSP2; 776; 894; 6xHis-GST (N, cleaved yes); made in house; host or cells: Escherichia coli BL21-Gold (DE3)
# Experimental: (§1) Proteins were expressed in Escherichia coli (E.coli) BL21-Gold (DE3) bacteria. The cDNAs encoding N-terminal 6-histidine-glutathione S-transferase tagged (6xHis-GST), 6xHis-tagged or GST-tagged protein domains in pETM33, pETM11, pGEX6P1 expression vectors respectively, were obtained from Genescript or kindly provided by MRC-PPU (Suppl. Data 1) The bacteria were transformed with the plasmid and grew at 37 °C in 2YT (5 g/L NaCl, 16 g/L tryptone and 10 g/L yeast extract) supplemented with Kanamycin (30 μg/mL) until reaching an OD600 of 0.7. Protein expression was induced with 0.3 mM isopropyl β-D-1 thiogalactopyranoside (IPTG) for 18 h at 18 °C while shaking. For zinc-finger domains, 50 μM of ZnSO4 was added during expression. The bacterial cultures were pelleted for 15 minutes at 4000 x g at 4 °C and stored at −20 °C until purification. The pellets were resuspended in lysis buffer (1× phosphate-buffered saline (PBS), 0.5 % Triton-X, 5 mM MgCl2, 10 μg/mL lysozyme, cOmplete^TM EDTA-free protease inhibitor cocktail (Roche), 10 μg/mL DNAseI) and incubated for 1 h shaking at 4 °C. […] The supernatant was incubated with glutathione (GSH) Sepharose (Cytiva) or Ni2+ Sepharose (Cytiva) for 1 h at 4 °C while shaking. The beads with the bound protein were washed with 1x PBS and eluted with 10 mM reduced glutathione in 50 mM Tris pH 8.0. For fluorescence polarization experiments, the proteins were not eluted from the beads, and the 6xHis-GST tag was cleaved overnight on GSH Sepharose beads at 4 °C while shaking with PreScission Protease in cleavage buffer (50 mM Tris pH 7.5, 150 mM NaCl, 1 mM DTT). The sample containing the cleaved domain was separated from the tag and protease and buffer-exchanged to 50 mM sodium phosphate buffer pH 7.4 with 1 mM DTT using a PD-10 desalting column (Cytiva). The purity and size of the proteins were analyzed by SDS-PAGE electrophoresis.
# (§2) The measurements were performed at room temperature in a non-binding black half area 96-well plate (Corning) with a total volume of 50 μL per well. Peptides were obtained from GeneCust (France) with >95% purity. FITC-labeled peptides (N-terminally FITC-labeled without spacer and C-terminally amidated) were dissolved in dimethyl sulfoxide (DMSO), and unlabeled peptides (N-terminally acetylated and C-terminally amidated) were dissolved in 50 mM phosphate buffer pH 7.4. Saturation measurements were performed using a serial dilution of the protein domains in phosphate buffer (25 μL) and the addition of 10 nM FITC-labeled peptide (in phosphate buffer supplemented with 2 mM DTT) (25 μL). […] All measurements were performed in three technical replicates. The data were analyzed using GraphPad Prism version 9.2.0 for MacOS (GraphPad Software, San Diego, California USA, www.graphpad.com). The saturation curves were fitted to the quadratic equation, and the displacement curves were fitted to a sigmoidal dose-response equation as described previously.
# [2] = target: T2, USP33 DUSP2 domain (Homo sapiens, UniProt Q8TEY7); assay: FP-monitored affinity measurements, USP33 DUSP2; type: binding
# T2 construct: USP33_DUSP2; Q8TEY7; DUSP2; 806; 921; 6xHis-GST (N, cleaved yes); made in house; host or cells: Escherichia coli BL21-Gold (DE3)
# T2 sequence (Q8TEY7 with tags, fused parts or gaps): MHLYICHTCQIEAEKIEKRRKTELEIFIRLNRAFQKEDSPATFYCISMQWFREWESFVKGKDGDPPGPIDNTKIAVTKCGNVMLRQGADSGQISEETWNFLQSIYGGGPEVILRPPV
# Experimental: as §1, §2
# [3] = target: T1, USP20 DUSP2 domain; assay: Peptide SPOT array, USP20 DUSP2; type: binding; conditions: for Average: peptide SPOT array intensity minus background, mean of 2 replicas; for Average / Normalize to peptide with higher intensity %: sheet S5A; for Normalize to higher intensity (%) / Normalize to peptide with higher intensity %: peptide SPOT array; for Normalize to higher intensity (%): USP20 DUSP2, average normalised to the highest intensity (ARNTL2 = 100); for Normalize to peptide with higher intensity %: average normalized to the peptide with highest intensity (ARNTL2 = 100);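 as to all read-outs here: GST-tagged domain probed overnight at 4 °C on peptides made on cellulose membranes, bound protein detected via HRP-coupled anti-GST antibody, spot intensity from image analysis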
# Experimental: (§3) Peptides were synthesized on cellulose membranes with standard Fluoroenylmethylox-ycarbonyl (Fmoc) chemistry using a Multipep automated synthesizer at INTAVIS (Tübingen, Germany) or ordered from JPT (PepSpots). The membranes were activated with methanol for 5 min and washed three times for 5 min with TBST (50 mM Tris, 137 mM NaCl, 2.7 mM KCl, pH 8.0, 0.05% Tween-20). The membranes were incubated with blocking buffer (5% skim milk powder in TBST) for 2 h at room temperature while shaking. The membranes were incubated with the GST-tagged protein diluted at the desired concentration in blocking buffer and incubated overnight at 4 °C while shaking. The membrane was rinsed 3 times with TBST and incubated with HRP-conjugated anti-GST antibody (Cytiva, RPN1236; 1:3000 dilution) in blocking buffer for 1 h at 4 °C while shaking. […] The images were analyzed in Fiji (ImageJ2 version 2.9.0).
# [4] = target: T2, USP33 DUSP2 domain; assay: Peptide SPOT array, USP33 DUSP2; type: binding; conditions: average normalised to the highest intensity (CCDC88B = 100)
# Experimental: as §3
# [5] = tested on: USP auxiliary domains and full-length CYLD and USP7 (baits); assay: ProP-PD selections against the HD2 library; type: binding, human; conditions: for mean_counts_% / specificity: ProP-PD peptide level
# Experimental: We generated a collection of 29 USP ADs and two full-length USPs (CYLD and USP7). The collection was biased towards domains that are present in several USPs, such as zf-UBP domains, UBL domains and DUSP domains (Suppl. Data 1). We also included ADs only found in specific USPs, such as the three CAP-Gly domains of CYLD and the C-terminal domain of USP25. […] The peptide-coding regions of the phage pools were analyzed by next-generation sequencing (NGS), mapped to the corresponding proteins, and filtered for high/medium confidence ligands based on established criteria (with confidence level 4 being the highest).
# as §1
# The human disorderome library was used for four rounds of phage display selections. GST-tagged, 6xHis-tagged or GST-6xHis purified proteins were used as baits and GST was used as control by immobilization on a 96-well MaxiSorp plate (Nunc) overnight at 4 °C while shaking (10 μg of protein in 100 μL PBS). The wells containing the immobilized proteins were blocked with 0.5% BSA in PBS for 1 hour at 4 °C while shaking. The phage library was prepared by precipitation in 1/5th volume PEG/NaCl (20% PEG-8000 + 0.4 M NaCl), incubated for 10 min on ice, followed by centrifugation at 10,000 × g for 10 min at 4 °C and resuspended in PBS. The GST-coated wells were washed four times with 0.05% Tween 20 in PBS, and 100 μL/well phage library was added and incubated 1 h at 4 °C while shaking. The protein-coated wells were washed four times with 0.05% Tween 20 in PBS, and the phage solution from the GST-coated wells was transferred to the protein-coated wells and incubated 2 h at 4 °C while shaking. The unbound phages were removed by washing 5 times with 0.05% Tween 20 in PBS, and the bound phages were eluted with 100 μL/well log-phase E.coli OmniMAX by incubating for 30 min at 37 °C while shaking. M13KO7 helper phages (10^11 PFU/mL) were added to each well and incubated for 45 min at 37 °C while shaking. […]
# [6] = USP33_DUSP2, FP displacement by unlabelled peptide, read-out: KD
# [7] = bait CYLD_CAP-Gly-2 (Q9NQC7 235-307), collapsed regions of overlapping peptides
# [8] = bait CYLD_CAP-Gly-2 (Q9NQC7 235-307)
# [9] = bait CYLD_CAP-Gly-1 (Q9NQC7 8-210), collapsed regions of overlapping peptides
# [10] = competitive FP: unlabeled peptide (N-acetylated, C-amidated) against protein with 10 nM FITC-labeled peptide, 50 mM phosphate pH 7.4, room temperature, technical triplicate, read-out: KD, USP33 DUSP2
# T1 sequence (Q9Y2K6 with tags, fused parts or gaps): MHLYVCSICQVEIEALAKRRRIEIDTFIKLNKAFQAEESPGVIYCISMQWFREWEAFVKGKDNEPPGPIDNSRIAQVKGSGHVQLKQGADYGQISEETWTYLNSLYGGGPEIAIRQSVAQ
Compound,Average [3],Normalize to higher intensity (%) [3] [%],Normalize to peptide with higher intensity % [3] [%],Normalize to higher intensity (%) [4] [%],other results
CC[C@H](C)[C@H](NC(=O)[C@H](Cc1ccc(O)cc1)NC(=O)[C@@H]1CCCN1C(C)=O)C(=O)N1CCC[C@H]1C(=O)N[C@@H](CCSC)C(=O)N[C@@H](CC(=O)O)C(=O)N[C@@H](CC(=O)O)C(=O)N[C@@H](CC(=O)O)C(=O)N[C@@H](C)C(=O)N[C@@H](CCC(N)=O)C(=O)N[C@@H](CC(C)C)C(=O)N[C@@H](CCCNC(=N)N)C(=O)N[C@@H](CO)C(=O)N[C@@H](Cc1ccccc1)C(=O)N[C@@H](CC(=O)O)C(=O)N[C@@H](CCC(N)=O)C(=O)N[C@@H](CC(C)C)C(=O)N[C@@H](CO)C(N)=O [HIF1A_F572A],–,–,–,–,"pKd [1]: ~3.23; pKd [2, 6]: ~3.03"
Ac-PYIPMDDDFQARSFDQLS-NH2 [HIF1A_L574A],–,–,–,–,"pKd [1]: 4.05; pKd [2, 6]: ~3.64"
KEQLSSFDISPREKLI [ARNTL2],178.582,100,100,36.7483,–
KGHSRDFVLRRDLSAT [ZIC5],72.2767,40.47,40.4726,49.982,–
EGTEVAFPLLVSHRSQ [EMSY],-0.4433,-0.2483,-0.2483,1.956,–
WRFEQLEWRSILLDMA,–,–,–,–,"max_specificity [5, 7]: 0.60"
RLQKDIWDIQMRSKSL [GBP2],51.5267,28.85,28.8533,42.7122,–
EAGLALRTDLQGEAQI [ZNF783],-16.4483,-9.211,-9.211,68.6966,–
VAEMVALVEQRA,–,–,–,–,"max_specificity [5, 7]: 1.00"
LRHPSGWWLVENEDRQ [NOXO1],44.4667,24.9,24.8999,27.858,–
GGLTDLSSLIQAGQQF [SGTB],27.0767,15.16,15.1621,19.7113,–
MNFNVWNIKEMLSIPS [IHO1],-8.778,-4.916,-4.916,-0.2743,–
KMGSDEFDISPRISKQ [MGA],138.987,77.83,77.8281,61.0297,–
VAEMVALVEQRAALAL,–,–,–,–,"mean_counts_% [5, 8]: 0.0147%; specificity [5, 8]: 0.48"
PDAELQRMEQEAERRR [RBM25_558-573],–,–,–,–,"specificity ([5]; bait CYLD_CAP-Gly-1 (Q9NQC7 8-210)): 0.95; max_confidence [5, 9]: 2; max_specificity [5, 9]: 0.95"
EKEDSCFELLHRAVGH [ASB8],-31.4033,-17.58,-17.5849,10.516,–
VKHPRFFALFEKHGGY [PPIP5K1],-28.3983,-15.9,-15.9022,-36.2833,–
DLLSVAEMVALVEQRA [FBXO46_168-183],–,–,–,–,"mean_counts_% [5, 8]: 16.99%; specificity [5, 8]: 1.00"
PYIPMDDDFQARSFDQLS [L574A],–,–,–,–,"pKd [2, 10]: < 3.70"
EEDVLAFNLQHLATLA [BAHCC1_1],-22.4783,-12.59,-12.5871,29.5039,–
Ac-PYIPMDKDFQLRSFDQLS-NH2 [D570K],–,–,–,–,"pKd [2, 10]: 5.00"
CC[C@H](C)[C@H](NC(=O)[C@H](Cc1ccc(O)cc1)NC(=O)[C@@H]1C[C@@H](O)CN1C(C)=O)C(=O)N1CCC[C@H]1C(=O)N[C@@H](CCSC)C(=O)N[C@@H](CC(=O)O)C(=O)N[C@@H](CC(=O)O)C(=O)N[C@@H](CC(=O)O)C(=O)N[C@@H](Cc1ccccc1)C(=O)N[C@@H](CCC(N)=O)C(=O)N[C@@H](CC(C)C)C(=O)N[C@@H](CCCNC(=N)N)C(=O)N[C@@H](CO)C(=O)N[C@@H](Cc1ccccc1)C(=O)N[C@@H](CC(=O)O)C(=O)N[C@@H](CCC(N)=O)C(=O)N[C@@H](CC(C)C)C(=O)N[C@@H](CO)C(N)=O [HyPro-HIF1A564-581],–,–,–,–,"pKd [2, 10]: 5.15"
NGLDIAPRYFGFIKAC [SLC17A1],7.792,4.363,4.363,22.3834,–
Ac-PYIPMDKDFQLRSFDQLS-NH2 [HIF1A_D570K],–,–,–,–,pKd [1]: 4.73
QPIDNSFDIQSRDCIS [MAP3K4],40.0217,22.41,22.4108,25.9612,–
TWWDRYEEFVGLNEVR,–,–,–,–,"mean_counts_% [5, 8]: 3.88%; specificity [5, 8]: 0.28; max_specificity [5, 7]: 0.28"
SQQDAQEFLRALMDLL,–,–,–,–,"mean_counts_% [5, 8]: 30.84%; specificity [5, 8]: 0.87; max_specificity [5, 7]: 0.87"
ATLATAWSLVEAAGLD [BAHCC1_2],-15.5033,-8.681,-8.681,-24.9243,–
